Test results reported in publication PMC8379256, “A xanthene derivative, DS20060511, attenuates glucose intolerance by inducing skeletal muscle-specific GLUT4 translocation in mice” (Communications Biology, 2021).
“And” between values parts separate entries of the source, which are not always exact repeats. Equal entries are not always repeated.

Key:
[1] = test system: wild-type and GLUT4KO mice; experiment: Oral GTT in wild-type and GLUT4 knockout mice; assay type: in vivo, mouse; settings: for Blood glucose / Plasma insulin: glucose tolerance test, DS20060511 30 mg/kg, individual animals, 30 mg/kg; for blood glucose and plasma insulin levels during oral GTT (in words): 30 mg kg−1 po
Procedure: (§1) Fig. 3 The glucose-lowering effect of DS20060511 is totally dependent on GLUT4. a Blood glucose and plasma insulin levels during oral GTT in wild-type (WT, n = 5) and GLUT4 knockout (KO, n = 6) mice. Mice received oral administration of vehicle or DS20060511 (30 mg kg^−1), 15 min prior to the glucose administration (1.5 g kg^−1). Values shown are means ± SEM. *P < 0.05, **P < 0.01 vs. vehicle by the t-test. b DS20060511-stimulated [^3H]-2-DG uptake in the isolated soleus and EDL muscles excised from WT (n = 6) and KO (n = 6) mice. Values shown are means ± SEM. **P < 0.01 vs. vehicle by the t-test.
C57BL/6 and db/db mice were purchased from CLEA Japan, Tokyo, Japan. GLUT4- knockout mice were generated at RIKEN BioResource Center, Tsukuba, Japan, according to a previously described method. eNOS-knockout mice were kindly provided by Dr. Masato Tsutsui[41],[42]. The mice were group-housed under controlled illumination (12:12 h light-dark cycle) and temperature (23 ± 2 °C) conditions and given free access to normal chow and water, unless otherwise specified. The HFD-fed obese mice were prepared by feeding C57BL/6 mice a HFD for at least 8 weeks from 6 weeks of age. […] Male mice were used for all the experiments in this study. The animal care and experimental procedures used in the study were approved by The University of Tokyo Animal Care Committee (Approval number: 27-3), and the study was carried out in accordance with the Animal Experimentation Guidelines of Daiichi Sankyo Co., Ltd (Approved number: 20000411).
Mice that had been denied access to food overnight received the indicated oral dose of DS20060511 or vehicle 15 min prior to the glucose load (1.5 g kg^−1, except for eNOS-knockout mice, which received 3.0 g kg^−1). Then, after the oral glucose load, the blood glucose levels were measured using Glutest Every in samples obtained from the tail vein at the indicated timepoints. Plasma insulin concentrations were also measured with an ELISA kit (Morinaga Institute of Biological Science, Yokohama, Japan) in blood samples collected from the tail vein at the indicated timepoints.

C57BL/6 mice = experiment: Blood glucose after DS20060511 alone in fed or overnight food-deprived mice; assay type: in vivo, mouse; settings: for Blood glucose: 30 mg/kg; for blood glucose levels (in words): 30 mg kg−1
Procedure: Fig. 2 Treatment with DS20060511 decreases the blood glucose levels via inducing GLUT4 translocation and increasing skeletal muscle glucose uptake. a, b Blood glucose levels after treatment with DS20060511 (30 mg kg^−1) in C57BL/6 mice that had received continued access to food (a) and mice that had been denied access to food overnight (b) (n = 8). Values shown are means ± SEM. **P < 0.01 vs. 0 min by one-way ANOVA followed by Dunnett’s test. c Blood glucose and plasma insulin levels during oral GTT in the C57BL/6 mice (n = 5–6). The mice received oral administration of vehicle or DS20060511 at the indicated dose, 15 min prior to glucose administration (1.5 g kg^−1). Values shown are means ± SEM. *P < 0.05, **P < 0.01 vs. vehicle by one-way ANOVA followed by Williams’ test. d [^3H]-2-DG uptake in the soleus muscle, gastrocnemius muscle (Gastro.), heart, and white adipose tissue (WAT) at 60 min during the intraperitoneal GTT in the C57BL/6 mice (n = 3). The mice received oral administration of vehicle or DS20060511 (30 mg kg^−1), 15 min prior to glucose administration (1 g kg^−1 glucose containing [^3H]-2-DG). […] Uncropped blots for e can be found in Supplementary Fig. 6.

[2] = test system: isolated soleus and EDL muscles; experiment: [3H]-2-DG uptake in isolated soleus and EDL muscles from WT and GLUT4KO mice; set-up: species or system mouse; settings: for 2DOG Trn / IC 2DOG / 2-DG uptake Raio: DS20060511 10μM, individual muscles; for 2DOG Trn / IC 2DOG: 2DG 1 mM, incubation time 10 min; for 2-DG uptake Raio: ratio to vehicle
Procedure: as §1
The soleus or EDL muscle was removed from anesthetized mice (isoflurane anesthesia) that had been denied access to food overnight, and incubated with oxygenated (95% O2/5% CO2) Krebs-Henseleit Bicarbonate (KHB) buffer (118.1 mM NaCl, 4.7 mM KCl, 1.1 mM KH2PO4, 1.2 mM MgSO4, 2.5 mM CaCl2, and 25 mM NaHCO3, pH7.4) in the presence of 11.1 mM glucose at 37 °C. The muscle specimens were then treated with the indicated concentrations of the compounds in KHB buffer containing 11.1 mM glucose and 8 mM mannitol for 10 min at 37 °C. Thereafter, the muscles were rinsed with KHB buffer containing 8 mM mannitol and the compounds for 5 min at 37 °C. Lastly, the muscles were treated with the compounds in KHB buffer containing 1 mM 2-DG (with 0.3 μCi mL^−1 [^3H]-2-DG) and 8 mM mannitol (with 0.03 μCi mL^−1 [^14C]-mannitol) for 10 min at 37 °C. After the muscle specimens were washed, they were lysed with 1 N NaOH and neutralized with 1 N HCl. The ^14C- and ^3H-specific activities were counted with a liquid scintillation counter. The specific uptake of 2-DG was calculated by subtracting the nonspecific uptake of mannitol from the total 2-DG uptake. To investigate the effects of muscle contraction, muscle contraction was induced by electrical stimulation with 5 Hz (1 ms pulse duration, 100 V) for 10 min (SEN-5201, Nihon Koden, Tokyo, Japan).

Structure (SMILES): COc1ccc2c(C)c(C(=O)O)ccc2c1C1C2=C(CC(C)(C)CC2=O)OC2=C1C(=O)CC(C)(C)C2 [DS20060511]
- Blood glucose ([1]; GLUT4KO mice, 0 min): 151 mg/dL and 106 mg/dL and 203 mg/dL and 105 mg/dL and 130 mg/dL
- Plasma insulin ([1]; GLUT4KO mice, 0 min): 0.11 ng/mL and 0.07 ng/mL and 0.16 ng/mL and 0.12 ng/mL and 0.18 ng/mL
- Blood glucose ([1]; GLUT4KO mice, 15 min): 361 mg/dL and 352 mg/dL and 278 mg/dL and 400 mg/dL and 444 mg/dL
- Plasma insulin ([1]; GLUT4KO mice, 15 min): 0.43 ng/mL and 0.42 ng/mL and 0.55 ng/mL and 0.33 ng/mL and 0.70 ng/mL and 0.59 ng/mL
- Blood glucose ([1]; GLUT4KO mice, 30 min): 422 mg/dL and 387 mg/dL and 377 mg/dL and 384 mg/dL and 492 mg/dL and 513 mg/dL
- Plasma insulin ([1]; GLUT4KO mice, 30 min): 0.34 ng/mL and 0.39 ng/mL and 0.25 ng/mL and 0.30 ng/mL and 0.28 ng/mL
- Blood glucose ([1]; GLUT4KO mice, 60 min): 272 mg/dL and 266 mg/dL and 232 mg/dL and 390 mg/dL and 329 mg/dL and 389 mg/dL
- Blood glucose ([1]; GLUT4KO mice, 90 min): 175 mg/dL and 168 mg/dL and 194 mg/dL and 265 mg/dL and 245 mg/dL and 275 mg/dL
- Blood glucose ([1]; GLUT4KO mice, 120 min): 115 mg/dL and 112 mg/dL and 165 mg/dL and 193 mg/dL and 153 mg/dL and 190 mg/dL
- Blood glucose ([1]; GLUT4KO mice, -15 min): 93 mg/dL and 75 mg/dL and 110 mg/dL and 49 mg/dL and 95 mg/dL and 89 mg/dL
- Plasma insulin ([1]; GLUT4KO mice, -15 min): 0.06 ng/mL and 0.10 ng/mL and 0.11 ng/mL and 0.18 ng/mL and 0.13 ng/mL and 0.14 ng/mL
- blood glucose and plasma insulin levels during oral GTT (in words) ([1]; GLUT4KO mice): completely abolished
- Blood glucose ([1]; Wildtype mice, 0 min): 69 mg/dL and 44 mg/dL and 58 mg/dL and 62 mg/dL and 46 mg/dL
- Plasma insulin ([1]; Wildtype mice, 0 min): 0.10 ng/mL and 0.02 ng/mL and 0.13 ng/mL and 0.14 ng/mL
- Blood glucose ([1]; Wildtype mice, 15 min): 133 mg/dL and 103 mg/dL and 142 mg/dL and 181 mg/dL and 104 mg/dL
- Plasma insulin ([1]; Wildtype mice, 15 min): 0.16 ng/mL and 0.14 ng/mL and 0.17 ng/mL and 0.18 ng/mL and 0.11 ng/mL
- Blood glucose ([1]; Wildtype mice, 30 min): 124 mg/dL and 111 mg/dL and 100 mg/dL and 107 mg/dL
- Plasma insulin ([1]; Wildtype mice, 30 min): 0.26 ng/mL and 0.10 ng/mL and 0.15 ng/mL
- Blood glucose ([1]; Wildtype mice, 60 min): 92 mg/dL and 64 mg/dL and 99 mg/dL and 91 mg/dL and 76 mg/dL
- Blood glucose ([1]; Wildtype mice, 90 min): 71 mg/dL and 61 mg/dL and 87 mg/dL and 88 mg/dL and 68 mg/dL
- Blood glucose ([1]; Wildtype mice, 120 min): 74 mg/dL and 72 mg/dL and 70 mg/dL and 78 mg/dL and 82 mg/dL
- Blood glucose ([1]; Wildtype mice, -15 min): 66 mg/dL and 39 mg/dL and 48 mg/dL and 81 mg/dL and 64 mg/dL
- Plasma insulin ([1]; Wildtype mice, -15 min): 0.14 ng/mL and 0.18 ng/mL and 0.11 ng/mL
- blood glucose and plasma insulin levels during oral GTT (in words) ([1]; wild-type (WT) mice): significant decrease of the blood glucose and plasma insulin levels
- Blood glucose (C57BL/6 mice; Non-fasted, 0 min, individual mice): 125 mg/dL and 139 mg/dL and 194 mg/dL and 126 mg/dL and 129 mg/dL and 150 mg/dL and 154 mg/dL and 134 mg/dL
- Blood glucose (C57BL/6 mice; Non-fasted, 30 min): 134 mg/dL and 128 mg/dL and 101 mg/dL and 95 mg/dL and 122 mg/dL and 111 mg/dL and 121 mg/dL and 96 mg/dL
- Blood glucose (C57BL/6 mice; Overnight fasted, 0 min): 58 mg/dL and 52 mg/dL and 73 mg/dL and 46 mg/dL and 54 mg/dL and 55 mg/dL and 61 mg/dL
- Blood glucose (C57BL/6 mice; Overnight fasted, 30 min): 52 mg/dL and 53 mg/dL and 57 mg/dL and 60 mg/dL and 42 mg/dL and 55 mg/dL and 49 mg/dL
- Blood glucose (C57BL/6 mice; Overnight fasted, 60 min): 56 mg/dL and 57 mg/dL and 59 mg/dL and 48 mg/dL and 50 mg/dL and 45 mg/dL
- blood glucose levels (in words) (C57BL/6 mice; mice denied access to food overnight, Fig. 2b): no effect on the blood glucose levels
- blood glucose levels (in words) (C57BL/6 mice; mice with continued access to food, oral, Fig. 2a): modestly, but statistically significantly, reduced the blood glucose levels
- 2-DG uptake by isolated soleus and EDL muscles (in words) ([2]; GLUT4KO mice): no such increase in muscle uptake was observed
- 2DOG Trn ([2]; GLUT4KO, isolated EDL): 219 nmol/ml and 21.9 µM/min and 229 nmol/ml and 22.9 µM/min and 220 nmol/ml and 22.0 µM/min and 239 nmol/ml and 23.9 µM/min and 247 nmol/ml and 24.7 µM/min
- IC 2DOG ([2]; GLUT4KO, isolated EDL): 136 nmol/g and 155 nmol/g and 142 nmol/g and 149 nmol/g and 143 nmol/g and 156 nmol/g
- 2-DG uptake Raio ([2]; GLUT4KO, isolated EDL): 1.02 and 1.07 and 1.03 and 1.11 and 1.15
- 2DOG Trn ([2]; GLUT4KO, isolated Soleus): 272 nmol/ml and 27.2 µM/min and 411 nmol/ml and 41.1 µM/min and 553 nmol/ml and 55.3 µM/min and 323 nmol/ml and 32.3 µM/min and 280 nmol/ml and 28.0 µM/min and 475 nmol/ml and 47.5 µM/min
- IC 2DOG ([2]; GLUT4KO, isolated Soleus): 151 nmol/g and 223 nmol/g and 272 nmol/g and 155 nmol/g and 138 nmol/g and 244 nmol/g
- 2-DG uptake Raio ([2]; GLUT4KO, isolated Soleus): 0.86 and 1.30 and 1.75 and 1.02 and 0.89 and 1.50
- 2-DG uptake by isolated soleus and EDL muscles (in words) ([2]; WT mice): significantly increased the 2-DG uptake
- 2DOG Trn ([2]; Wildtype, isolated EDL): 620 nmol/ml and 62.0 µM/min and 476 nmol/ml and 47.6 µM/min and 591 nmol/ml and 59.1 µM/min and 474 nmol/ml and 47.4 µM/min and 359 nmol/ml and 35.9 µM/min and 351 nmol/ml and 35.1 µM/min
- IC 2DOG ([2]; Wildtype, isolated EDL): 373 nmol/g and 286 nmol/g and 340 nmol/g and 291 nmol/g and 235 nmol/g and 229 nmol/g
- 2-DG uptake Raio ([2]; Wildtype, isolated EDL): 2.47 and 1.90 and 2.36 and 2.12 and 1.61 and 1.57
- 2DOG Trn ([2]; Wildtype, isolated Soleus): 632 nmol/ml and 63.2 µM/min and 599 nmol/ml and 59.9 µM/min and 719 nmol/ml and 71.9 µM/min and 638 nmol/ml and 63.8 µM/min and 552 nmol/ml and 55.2 µM/min and 582 nmol/ml and 58.2 µM/min
- IC 2DOG ([2]; Wildtype, isolated Soleus): 343 nmol/g and 302 nmol/g and 363 nmol/g and 327 nmol/g and 293 nmol/g and 321 nmol/g
- 2-DG uptake Raio ([2]; Wildtype, isolated Soleus): 1.76 and 1.67 and 2.01 and 2.02 and 1.75 and 1.84
